Test results reported in US20230181678A1, “NOVEL ANTIBACTERIAL PEPTIDE OR PEPTIDE ANALOG AND USE THEREOF” (CAMP THERAPEUTICS INC., priority 2020, published 2023).
* marks the point of attachment. Octanoyl = CCCCCCCC(=O)*

Tests used:
[1] = tested on: outer membrane of E. coli NDM-1; assay: Enzyme assay, outer membrane leakage (β-lactamase release, CENTA); assay type: cell-based; details: peptide 0.63 or 1.30 uM, 37° C., 1 h; 200 μM CENTA
Procedure: It was observed, through an enzyme assay, whether the sensitizing peptide destroyed the outer and inner membranes of Gram-negative bacteria. In the presence of the sensitizing peptide, it was observed whether in a case where 1.5 mM ONPG was used together therewith, β-galactosidase was released from E. coli ATCC 25922 for the inner membrane, and whether in a case where 200 μM CENTA was used together therewith, β-lactamase was released from E. coli NDM-1 for the outer membrane.
Specifically, to determine leakage of the outer membrane, activity of the β-lactamase released from the outer membrane was evaluated. New Delhi metallo-β-lactamase-1 (NDm-1)-producing E. coli cells were washed three times with DPBS and suspended in the same buffer. The cells were diluted to an OD600 of 0.2 and treated with the peptide at a concentration of 0.63 or 1.30 uM at 37° C. for 1 h. After centrifugation, the supernatant was incubated with 200 μM CENTATM β-lactamase substrate at 37° C. for 1 hour. An optical density was obtained by measuring absorbance of a product of enzyme reaction at 405 nm using a microplate reader (Molecular Devices Co., Menlo Park, Calif.).
The results are illustrated in FIGS. 12A and 12B. The y-axis is absorbance measured at 405 nm, and higher absorbance is observed as a higher amount of β-lactamase is released due to destruction of the membrane.

A. baumannii 801 [2] = assay: Immunosuppressed rat pneumonia infection model; assay type: in vivo; details: 5 mg/kg of rifampicin and 3 mg/kg or 6 mg/kg of CMP1401 (intravenous infusion 1 hour) vs 32 mg/kg colistin
Procedure: The results are illustrated in FIG. 16.
32 mg/kg of colistin is known as a clinical dose used for treatment of A. baumannii 801. Therefore, an effect observed in a case where 32 mg/kg of colistin was used alone may be a criterion for comparing effectiveness of co-administration of CMP1401 and an antibacterial agent in this example.

A. baumannii 801 [3] = assay: Neutropenic mouse pneumonia model, number of colonies in lungs; assay type: in vivo
Procedure: (§1) To induce neutropenia in 6-week-old female ICR (CD-1) mice weighing 23 g to 27 g (Orient Bio, Seongnam, Korea), the mice were treated (subcutaneously injected) with 150 mg/kg and 100 mg/kg of cyclophosphamide (CP), respectively, 4 days and 1 day before pneumonia infection. For a mouse model for survival analysis, the mice were infected intranasally with 1×10^8 CFU A. baumannii 801; and for a mouse model for colony number counting, the mice were infected intranasally with 1×10^6 CFU A. baumannii 801.
In addition to the survival rate in the neutropenic mouse pneumoniae mouse model, the number of colonies of A. baumannii 801 was measured in the mouse lungs. The mice were euthanized and lungs were harvested in sterile saline. The lungs were homogenized and serially diluted in sterile saline. The homogenized lungs were applied to tryptic soy agar plates, incubated at 37° C. overnight, and the number of colonies was counted. […] Six mice were used per each group.

E. coli ATCC 25922 = assay: MIC assay, sensitizing effect of peptide on antibacterial agents; assay type: cell-based
Procedure: (§2) All MIC assay experiments were performed using the Clinical and Laboratory Standards Institute (CLSI) guidelines (Clinical & Laboratory Standards Institute: CLSI Guidelines, 2017). Bacterial cells cultured overnight were diluted to 0.05 McFarland standard using McFarland (KIT […] PLUS INSTRUMENT, Biomerieux) in Muller Hinton II Broth (cation-adjusted) (Difco). The cells were inoculated at 1.5×10^5 CFU per 200 μL solution of each well in a 96-well plate. The peptide and the antibiotic were prepared using 2-fold serially diluted concentrations. […] Incubation was performed at 37° C. for 18 hours, and then absorbance was measured at 600 nm using an EPOCH2 microplate reader (BioTek, Winooski, USA) to calculate a MIC value. The MIC value was defined as a concentration of the antibiotic or peptide at which bacterial growth was inhibited to a level of lower than 10% growth of the positive control. Fold reduction was calculated using the following expression.
Fold reduction=MIC of antibiotic alone/MIC of antibiotic in presence of sensitizing peptide
Using the same MIC assay method as in Example 1, sensitizing effects of the peptide L9P (CMP1107, 1 ug/ml), which is known as a conventional sensitive AMP, and CMP1401 (1 ug/ml) were compared on existing antibacterial agents against E. coli ATCC 25922 (FIG. 5A).
In addition, MIC screening was used to compare sensitizing effects of the competitive drug SPR741 and the peptide CMP1401 or CMP1501 on the existing antibacterial agents against E. coli ATCC 25922 (FIGS. 5B and 5C). SPR741, which is a previously known polymyxin B (PMB) analog, is a sensitive AMP, and is a drug that has been identified through preclinical experiments to be effective against Gram-negative bacteria in a case of being used together with existing Gram-positive antibiotics.
(§3) ATCC 25922, A.b. ATCC 17978, K.p. ATCC 700603, and P.a. ATCC 27853, or CRE (E.c. NDM-1, K.p. NDM-1, or K.p. KPC) (FIGS. 9 and 10).

P.a. ATCC 27853 = assay: MIC assay, sensitizing effect of peptide on rifampicin or colistin; assay type: cell-based, Pseudomonas aeruginosa; details: peptide 4 ug/ml
Procedure: as §2, §3

Kp NDM-1 = assay: MIC assay, sensitizing effect of peptide on rifampicin (CRE); assay type: cell-based, Klebsiella pneumoniae; details: FIG. 9F; Kp NDM-1 (CRE); peptide 4 ug/ml
Procedure: as §2, §3

[4] = tested on: Acinetobacter baumannii ATCC 17978; assay: MIC assay, sensitizing effect of peptide on antibiotics; assay type: cell-based
A. baumannii 801 [5] = assay: Immunosuppressed mouse pneumonia infection survival model; assay type: in vivo
Procedure: as §1
The sensitizing peptide CMP1401 of the present disclosure was administered by intraperitoneal injection 4 times daily for 2 days (25 mg/kg QID). Six mice were used per each group.

K.p. ATCC 700603 = assay: MIC assay, sensitizing effect of peptide on rifampicin; assay type: cell-based, Klebsiella pneumoniae; details: FIG. 9C, peptide 4 ug/ml
Procedure: as §2, §3

[6] = 2.5 mg/kg rifampicin + 25 mg/kg CMP1401 vs 2.5 mg/kg rifampicin alone

## OctA-KKALKLAKKPLKLLK-NH2 (Octanoyl-KKALKLAKKPLKLLK-NH2) [CMP1401]
[1]
  destruction of outer membrane (β-lactamase release): did not destroy these membranes
A. baumannii 801 [2]
  effect of co-administration with rifampicin compared with colistin: comparable to that observed in a case where 32 mg/kg of colistin was administered
A. baumannii 801 [3]; [6]
  number of colonies fewer than rifampicin alone group: about 12 times
A. baumannii 801 [3]; rifampicin and CMP1401 co-administered vs untreated
  number of colonies fewer than untreated group (control): about 60 times
A. baumannii 801 [3]; rifampicin and CMP1401 vs rifampicin and SPR741
  number of colonies fewer than rifampicin and SPR741 group: about 30 times
E. coli ATCC 25922; FIG. 9A, E.c. ATCC 25922, peptide 4 ug/ml
  Decreased MIC value of rifampicin at peptide concentration of 4 ug/ml: 2 ng/mL
E. coli ATCC 25922; FIG. 10A, E.c. ATCC 25922, peptide 4 ug/ml
  Decreased MIC value of colisitin at peptide concentration of 4 ug/ml: 7.8 ng/mL
E. coli ATCC 25922; FIGS. 5B and 5C
  sensitizing effect on existing antibacterial agents compared with SPR741: almost the same or much better sensitizing effect
E. coli ATCC 25922; peptide concentration decreased by half as compared with SPR741, FIG. 5C
  sensitizing effect compared with SPR741 at half its concentration: equal or superior effect
E. coli ATCC 25922; peptides 1 ug/ml, FIG. 5A
  sensitizing effect on existing antibacterial agents compared with L9P: very good sensitizing effect
P.a. ATCC 27853; FIG. 9D
  Decreased MIC value of rifampicin at peptide concentration of 4 ug/ml: 250 ng/mL
P.a. ATCC 27853; FIG. 10B
  Decreased MIC value of colisitin at peptide concentration of 4 ug/ml: 16 ng/mL
Kp NDM-1
  Decreased MIC value of rifampicin at peptide concentration of 4 ug/ml: 7.8 ng/mL
[4]; FIG. 9B, A.b. ATCC 17978, peptide 4 ug/ml
  Decreased MIC value of rifampicin at peptide concentration of 4 ug/ml: 31 ng/mL
[4]; peptide 0.31 μM, vs fusidic acid alone
  sensitizing effect for fusidic acid: 250 times
[4]; peptide 0.31 μM, vs novobiocin alone
  sensitizing effect for novobiocin: 16 times
[4]; peptide 0.31 μM, vs rifampicin alone
  sensitizing effect for rifampicin: 64 times
A. baumannii 801 [5]; 2.5 mg/kg of rifampicin and 25 mg/kg of CMP1401 (intraperitoneal, QID) co-administered
  survival rate: 50%
A. baumannii 801 [5]; [6]
  survival rate higher than rifampicin alone: about 33.3%
A. baumannii 801 [5]; CMP1401 administered alone
  survival / antibacterial activity, peptide administered alone: all mice died
K.p. ATCC 700603
  Decreased MIC value of rifampicin at peptide concentration of 4 ug/ml: 7.8 ng/mL
